Values of other authors in patent US20220008494A1, “COMPOSITION FOR USE IN THE PREVENTION AND/OR SYMPTOMATIC TREATMENT OF IRRITABLE BOWEL SYNDROME” (priority 2018, published 2022).

How the values were obtained:
[1] = tested on: carrageenan-induced edema; conditions: 10 mg/kg p.o.; from 1 to 24 h (p<0.01) compared to the control
[2] = tested on: tail withdrawal reaction time; conditions: rat, in vivo
[3] = tested on: IBS-D patients
[4] = tested on: IBS patients; conditions: 300 mg per day as adjunct to standard therapies
[5] = 1 g/day butyric acid and inulin for 1 month, IBS-D compared to IBS-C patients

O=C(O)Cc1ccccc1Nc1c(Cl)cccc1Cl [Diclofenac, Diclofenac sodium]
edema (paw volume, plethysmometrically) [1]: significant decrease

CC(C)=CCN1CCC2(C)c3cc(O)ccc3CC1C2C (stereo not shown) [Pentazocine]
reaction time (tail withdrawal) [2]: significant increase

CCCC(=O)O [butyric acid]
condition of IBS-D patients ([3]; 1 g/day butyric acid (4 x 250 mg capsules) and inulin for 1 month): normalization
frequency of diarrhea episodes [3, 5]: significant reduction
stool consistency [3, 5]: significant increase
frequency of abdominal pain associated with defecation ([4]; fourth week of treatment): significant decrease
defecation-associated pain ([4]; twelfth week): also decrease
post-defecation stimulus ([4]; twelfth week): also decrease
post-prandial abdominal pain ([4]; twelfth week): also decrease
spontaneous abdominal pain ([4]; twelfth week): also decrease
